Assay results: patent US20260265256A1 (IMPACT THERAPEUTICS (SHANGHAI), INC., priority 2023, published 2026)

What was measured:
[1] = target: recombinant poly(ADP-ribose) polymerase 2 (PARP2) (Homo sapiens, UniProt Q9UGN5); test: PARP2 chemiluminescent assay; format: biochemical; conditions: PARP2 enzyme activity, chemiluminescence, 40 ng enzyme/well
[2] = target: recombinant poly(ADP-ribose) polymerase 1 (PARP1) (Homo sapiens, UniProt P09874); test: PARP1 chemiluminescent assay; format: biochemical; conditions: PARP1 enzyme activity, chemiluminescence, 40 ng enzyme/well
Description: The solution of recombinant poly(ADP-ribose) polymerase 1 and 2 (PARP1 and PARP2) (40 ng enzyme/well) and the compounds to be tested were mixed, respectively. The solutions were added to a 96-well plate coated with histone mixture, incubated at room temperature for 1 h, then 50 μL 0.3 ng/mL Streptavidin-HRP was added to each well. The plates were incubated for 30 minutes at room temperature. Finally, the plates were treated with streptavidin-HRP followed by addition of the ELISA ECL substrate to produce chemiluminescence that can be measured using a chemiluminescence reader. Inhibition of the tested compound to PARP1/2 enzyme activity was calculated according to the following formula. [formula] IC50 value is obtained by fitting the s-shaped dose response curve equation by using XL Fit software.

MDA-MB-436 cells = test: Growth inhibition assay against BRCA mutant human breast cancer MDA-MB-436 cell line (CCK-8, 7 days); format: cell-based; conditions: 168 h, MDA-MB-436, 7 days, read-out: IC50 (nM), proliferation of human breast cancer cells MDA-MB-436
In short: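 Seeded 3000 cells/well overnight, then exposed to test compound (0.10% DMSO control) for 7 days at 37 °C, 5% CO2, with compound-containing medium changed on day 4. CCK-8 added for 4 h; OD = A450 − A650. Survival % relative to DMSO after background subtraction, plotted against concentration for IC50.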

PDE3A = target: T1, PDE3A (Homo sapiens, UniProt Q14432); test: PDE3A fluorescence polarization (FP) assay; format: biochemical; conditions: 2 nM PDE3A, 0.2 μM FAM-cAMP, read-out: IC50 (μM), PDE3A enzyme activity
T1 construct: purchased Sino Biological 11908-H20B1
Description: A PDE3A fluorescence polarization (FP) assay in a multi-step format was performed using black, round bottom 384-well plates (Corning, 4514). The testing compounds were serially diluted from stock solutions to 11 concentrations with a 3-fold dilution factor using DMSO. Fifty nL of compound dilutions was mixed with 5 μL of reaction buffer (10 mM Tris-HCl, pH 7.2, 10 mM MgCl2, 0.05% NaN3, 0.1% phosphate-free BSA) containing 0.2 μM FAM-cAMP (BPS, 60200) and 2 nM PDE3A (Sino Biological, 11908-H20B1) enzyme, and incubated for 60 min at 25° C. Afterwards, 15 μL binding agent mixture (Molecular Devices, R8124) was added to each well and the plate was incubated for 60 min at 25° C. The plate was loaded to a BMG PHERAstar FSX to read Fluorescence Polarization (FP) values at a setting of: Ex: 485 nm and Em: 520 nm. Emission light intensity with polarizers parallel (Em|) and emission light intensity with polarizers perpendicular (Em⊥) were recorded. The Polarization (mP) values were calculated using the following formula: mP=(SignalEm|−SignalEm⊥)/(SignalEm|+SignalEm⊥).
Data analysis: • 1) The inhibition % of a compound dose is calculated as:
[formula] • wherein mPMin and mPMax refer to the polarization readings in the condition of substrate only and substrate+enzyme, respectively. • 2) The IC50 values were calculated from non-linear curve fitting using following regression equation using a commercial curve fitting software GraphPad Prism 9.2.0.
wherein X refers to Log of compound concentration and Y refers to % Inhibition.
Table 3 summarize the inhibitory effects of compounds on PDE3A enzyme activity (IC50).

T1 sequence (Q14432 669-1141 limits assumed): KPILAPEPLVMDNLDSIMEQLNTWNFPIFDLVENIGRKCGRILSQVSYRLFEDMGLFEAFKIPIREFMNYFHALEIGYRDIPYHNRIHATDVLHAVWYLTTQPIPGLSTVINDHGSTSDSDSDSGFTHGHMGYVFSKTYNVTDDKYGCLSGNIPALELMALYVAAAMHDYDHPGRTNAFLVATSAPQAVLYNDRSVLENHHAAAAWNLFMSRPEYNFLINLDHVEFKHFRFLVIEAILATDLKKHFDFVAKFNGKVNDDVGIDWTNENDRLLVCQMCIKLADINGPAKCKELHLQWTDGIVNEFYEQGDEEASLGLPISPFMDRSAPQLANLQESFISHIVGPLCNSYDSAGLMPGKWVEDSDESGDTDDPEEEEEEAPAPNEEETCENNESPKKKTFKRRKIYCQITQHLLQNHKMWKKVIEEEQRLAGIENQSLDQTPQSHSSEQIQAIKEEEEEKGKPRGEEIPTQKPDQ
Chain of recombinant poly(ADP-ribose) polymerase 2 (PARP2) (Q9UGN5 whole entry): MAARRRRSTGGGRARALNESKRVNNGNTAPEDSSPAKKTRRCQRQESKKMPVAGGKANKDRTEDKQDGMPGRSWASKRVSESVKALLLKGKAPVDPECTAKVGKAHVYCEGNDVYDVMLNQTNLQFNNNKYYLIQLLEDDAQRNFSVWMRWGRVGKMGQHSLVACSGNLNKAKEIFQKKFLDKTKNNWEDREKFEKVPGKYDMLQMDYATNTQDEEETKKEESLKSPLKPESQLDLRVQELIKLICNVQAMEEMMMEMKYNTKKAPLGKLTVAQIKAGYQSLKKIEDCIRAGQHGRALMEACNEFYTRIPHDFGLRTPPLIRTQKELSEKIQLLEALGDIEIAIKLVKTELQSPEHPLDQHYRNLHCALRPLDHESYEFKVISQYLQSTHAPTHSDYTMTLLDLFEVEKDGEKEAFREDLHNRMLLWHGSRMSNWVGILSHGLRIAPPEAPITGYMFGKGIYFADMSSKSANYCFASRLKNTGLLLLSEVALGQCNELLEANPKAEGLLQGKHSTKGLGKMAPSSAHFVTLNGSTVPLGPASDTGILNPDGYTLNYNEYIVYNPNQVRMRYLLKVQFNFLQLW
Chain of recombinant poly(ADP-ribose) polymerase 1 (PARP1) (P09874 whole entry): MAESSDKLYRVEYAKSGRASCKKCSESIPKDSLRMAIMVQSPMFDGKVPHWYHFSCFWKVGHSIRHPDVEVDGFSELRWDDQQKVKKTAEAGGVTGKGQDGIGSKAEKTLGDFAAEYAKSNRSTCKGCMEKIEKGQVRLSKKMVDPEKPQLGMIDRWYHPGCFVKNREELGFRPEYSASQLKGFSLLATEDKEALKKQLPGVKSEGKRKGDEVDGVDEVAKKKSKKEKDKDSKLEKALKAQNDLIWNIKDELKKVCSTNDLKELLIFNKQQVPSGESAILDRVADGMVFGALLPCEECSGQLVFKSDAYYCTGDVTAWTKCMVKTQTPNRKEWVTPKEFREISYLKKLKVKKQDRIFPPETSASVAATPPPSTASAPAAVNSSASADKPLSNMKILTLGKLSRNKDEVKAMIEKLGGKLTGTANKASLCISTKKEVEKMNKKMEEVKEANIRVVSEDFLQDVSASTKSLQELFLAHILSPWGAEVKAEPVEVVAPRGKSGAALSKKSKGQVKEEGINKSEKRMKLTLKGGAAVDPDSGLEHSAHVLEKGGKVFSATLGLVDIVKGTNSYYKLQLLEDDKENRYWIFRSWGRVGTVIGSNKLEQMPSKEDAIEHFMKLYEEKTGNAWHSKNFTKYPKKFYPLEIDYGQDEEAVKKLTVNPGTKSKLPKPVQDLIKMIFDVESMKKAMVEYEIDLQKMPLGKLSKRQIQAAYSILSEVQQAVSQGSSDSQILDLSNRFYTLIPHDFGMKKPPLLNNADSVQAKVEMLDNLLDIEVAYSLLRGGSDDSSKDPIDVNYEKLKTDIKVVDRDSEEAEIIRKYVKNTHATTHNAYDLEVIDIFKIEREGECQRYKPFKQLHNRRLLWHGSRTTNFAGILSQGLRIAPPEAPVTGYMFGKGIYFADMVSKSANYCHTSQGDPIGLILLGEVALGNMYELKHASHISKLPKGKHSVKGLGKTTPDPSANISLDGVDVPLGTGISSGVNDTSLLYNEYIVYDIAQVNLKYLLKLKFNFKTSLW

Row | IC50 [1] [nM] | IC50 [2] [nM] | IC50 (MDA-MB-436 cells) [nM] | IC50 (PDE3A) [µM] | SMILES
1 | 21 | 0.26 | 4.75 |  | CNC(=O)c1ccc(-n2cc3c(n2)CN(Cc2ccc4c([nH]c(=O)c5c(C(F)(F)F)cnn54)c2F)C3)cn1 [Example 25, 5-(5-((6-fluoro-4-oxo-3-(trifluoromethyl)-4,5-dihydropyrazolo[1,5-a]quinoxalin-7-yl)methyl)-5,6-dihydropyrrolo[3,4-c]pyrazol-2(4H)-yl)-N-methylpicolinamide]
2 | > 10000 |  | 1.57 | > 30 | CNC(=O)c1ccc(-n2cc3c(n2)CN(Cc2ccc4c([nH]c(=O)c5nn(C)cc54)c2F)C3)cn1 [Example 29, 5-(5-((6-fluoro-2-methyl-4-oxo-4,5-dihydro-2H-pyrazolo[3,4-c]quinolin-7-yl)methyl)-5,6-dihydropyrrolo[3,4-c]pyrazol-2(4H)-yl)-N-methylpicolinamide]
3 | 118 |  | 6.04 | > 30 | CNC(=O)c1ccc(-c2nc3c(s2)CN(Cc2ccc4c([nH]c(=O)c5c(F)cnn54)c2F)C3)cn1 [Example 42, 5-(5-((3,6-difluoro-4-oxo-4,5-dihydropyrazolo[1,5-a]quinoxalin-7-yl)methyl)-5,6-dihydro-4H-pyrrolo[3,4-d]thiazol-2-yl)-N-methylpicolinamide]
4 | 48 |  | 0.38 | > 30 | CNC(=O)c1ccc(-n2cc3c(c2)CN(Cc2ccc4c([nH]c(=O)c5c(F)cnn54)c2F)C3)cn1 [Example 48, 5-(5-((3,6-difluoro-4-oxo-4,5-dihydropyrazolo[1,5-a]quinoxalin-7-yl)methyl)-5,6-dihydropyrrolo[3,4-c]pyrrol-2(4H)-yl)-N-methylpicolinamide]
5 | > 10000 |  | 1.51 | > 30 | CNC(=O)c1ccc(-n2cc3c(n2)CN(Cc2ccc4c([nH]c(=O)n5cc(C)nc45)c2F)C3)c(F)n1 [Example 51, 6-fluoro-5-(5-((7-fluoro-2-methyl-5-oxo-5,6-dihydroimidazo[1,2-c]quinazolin-8-yl)methyl)-5,6-dihydropyrrolo[3,4-c]pyrazol-2(4H)-yl)-N-methylpicolinamide]
6 | 255 |  | 1.47 | > 30 | CNC(=O)c1ccc(-n2cc3c(n2)CN(Cc2ccc4c([nH]c(=O)c5occc54)c2F)C3)c(F)n1 [Example 54, 6-fluoro-5-(5-((6-fluoro-4-oxo-4,5-dihydrofuro[2,3-c]quinolin-7-yl)methyl)-5,6-dihydropyrrolo[3,4-c]pyrazol-2(4H)-yl)-N-methylpicolinamide]
7 | 403 |  | 0.81 | > 30 | CCNC(=O)c1ccc(-n2cc3c(n2)CN(Cc2ccc4c([nH]c(=O)c5occc54)c2F)C3)c(F)n1 [Example 55, N-ethyl-6-fluoro-5-(5-((6-fluoro-4-oxo-4,5-dihydrofuro[2,3-c]quinolin-7-yl)methyl)-5,6-dihydropyrrolo[3,4-c]pyrazol-2(4H)-yl)picolinamide]
8 | > 10000 |  | 1.56 | > 30 | CCNC(=O)c1ccc(-n2cc3c(n2)CN(Cc2ccc4c([nH]c(=O)c5cc(F)nn54)c2F)C3)c(F)n1 [Example 57, 5-(5-((2,6-difluoro-4-oxo-4,5-dihydropyrazolo[1,5-a]quinoxalin-7-yl)methyl)-5,6-dihydropyrrolo[3,4-c]pyrazol-2(4H)-yl)-N-ethyl-6-fluoropicolinamide]
